In patent publication EP2361243B9 (Virobay, Inc., priority 2008, dated 2010):

Experiments:
Type in all cases: biochemical
Human cathepsin B = Human cathepsin B (Homo sapiens, UniProt P07858); assay: Cathepsin B Assay; details: apparent inhibition constant; substrate Z-FR-AMC, pH 6, 30 min incubation at room temperature; read-out: CATB (Ki)
Procedure: Solutions of test compounds in varying concentrations were prepared in 10 µL of dimethyl sulfoxide (DMSO) and then diluted into assay buffer (40 µL, comprising: N,N-bis(2-hydroxyethyl)-2-aminoethanesulfonic acid (BES), 50 mM (pH 6); polyoxyethylenesorbitan monolaurate, 0.05%; and dithiothreitol (DTT), 2.5 mM). Human cathepsin B (0.025 pMoles in 25 µL of assay buffer) was added to the dilutions. The assay solutions were mixed for 5-10 seconds on a shaker plate, covered and incubated for 30 min at room temperature. Z-FR-AMC (20 nMoles in 25 µL of assay buffer) was added to the assay solutions and hydrolysis was followed spectrophotometrically at (λ 460 nm) for 5 min. Apparent inhibition constants (Ki) were calculated from the enzyme progress curves using standard mathematical models.

Human cathepsin F = molecular target: T1, Human cathepsin F (Homo sapiens, UniProt Q9UBX1); assay: Cathepsin F Assay; details: apparent inhibition constant; substrate Z-Phe-Arg-AMC, pH 6.5, 30 min incubation at room temperature; read-out: CATF (Ki)
T1 sequence (Q9UBX1 271-484): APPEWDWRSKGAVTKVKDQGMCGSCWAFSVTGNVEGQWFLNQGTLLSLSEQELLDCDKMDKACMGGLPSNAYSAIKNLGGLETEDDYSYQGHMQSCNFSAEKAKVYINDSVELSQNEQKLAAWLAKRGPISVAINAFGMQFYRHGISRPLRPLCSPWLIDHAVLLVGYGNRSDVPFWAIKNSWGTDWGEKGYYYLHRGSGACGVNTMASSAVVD
Procedure: (§1) Solutions of test compounds in varying concentrations were prepared in 10 µL of dimethyl sulfoxide (DMSO) and then diluted into assay buffer (40 µL, comprising: MES, 50 mM (pH 6.5); EDTA, 2.5 mM; and NaCl, 100 mM); DTT, 2.5 mM; and BSA, 0.01 %. Human cathepsin F (0.1 pMoles in 25 µL of assay buffer) was added to the dilutions. The assay solutions were mixed for 5-10 seconds on a shaker plate, covered and incubated for 30 min at room temperature. Z-Phe-Arg-AMC (2 nMoles in 25 µL of assay buffer containing 10% DMSO) was added to the assay solutions and hydrolysis was followed spectrophotometrically (at λ 460 nm) for 5 min. Apparent inhibition constants (Ki) were calculated from the enzyme progress curves using standard mathematical models.

Human cathepsin L = Human cathepsin L (Homo sapiens, UniProt P07711); assay: Cathepsin L Assay; details: apparent inhibition constant; substrate Z-Phe-Arg-AMC, pH 5.5, 30 min incubation at room temperature; read-out: CATL (Ki)
Sequence of Human cathepsin L (P07711 114-333): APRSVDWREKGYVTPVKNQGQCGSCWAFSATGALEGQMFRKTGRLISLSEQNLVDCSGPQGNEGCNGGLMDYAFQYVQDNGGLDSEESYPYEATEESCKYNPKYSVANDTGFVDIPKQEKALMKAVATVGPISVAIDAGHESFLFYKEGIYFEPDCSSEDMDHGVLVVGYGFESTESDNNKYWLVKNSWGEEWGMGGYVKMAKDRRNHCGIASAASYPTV
Procedure: Solutions of test compounds in varying concentrations were prepared in 10 µL of dimethyl sulfoxide (DMSO) and then diluted into assay buffer (40 µL, comprising: MES, 50 mM (pH 5.5); EDTA, 2.5 mM; and DTT, 2.5 mM). Human cathepsin L (0.05 pMoles in 25 µL of assay buffer) was added to the dilutions. The assay solutions were mixed for 5-10 seconds on a shaker plate, covered and incubated for 30 min at room temperature. Z-Phe-Arg-AMC (1 nMoles in 25 µL of assay buffer) was added to the assay solutions and hydrolysis was followed spectrophotometrically at (λ 460 nm) for 5 min. Apparent inhibition constants (Ki) were calculated from the enzyme progress curves using standard mathematical models.

Human cathepsin S = Human cathepsin S (Homo sapiens, UniProt P25774); assay: Cathepsin S Assay; details: apparent inhibition constant; substrate Z-Val-Val-Arg-AMC, pH 6.5, 30 min incubation at room temperature; read-out: CATS (Ki)
Sequence of Human cathepsin S (P25774 115-331): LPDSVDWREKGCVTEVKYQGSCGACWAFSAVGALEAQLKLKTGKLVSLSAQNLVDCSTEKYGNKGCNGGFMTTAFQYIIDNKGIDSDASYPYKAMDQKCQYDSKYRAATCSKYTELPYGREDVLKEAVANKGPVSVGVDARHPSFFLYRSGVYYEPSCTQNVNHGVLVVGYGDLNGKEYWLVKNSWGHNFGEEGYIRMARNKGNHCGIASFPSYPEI
Procedure: as §1, with “β-mercaptoethanol,” for “DTT,”, “[…].” for “0.01 %.”, “S (0.05” for “F (0.1”, “Z-Val-Val-Arg-AMC (4” for “Z-Phe-Arg-AMC (2”, “λ,” for “λ”

CATV = CATV (Homo sapiens, UniProt O60911); assay: Cathepsin V inhibition (CATV Ki, no method described)
Sequence of CATV (O60911 114-334): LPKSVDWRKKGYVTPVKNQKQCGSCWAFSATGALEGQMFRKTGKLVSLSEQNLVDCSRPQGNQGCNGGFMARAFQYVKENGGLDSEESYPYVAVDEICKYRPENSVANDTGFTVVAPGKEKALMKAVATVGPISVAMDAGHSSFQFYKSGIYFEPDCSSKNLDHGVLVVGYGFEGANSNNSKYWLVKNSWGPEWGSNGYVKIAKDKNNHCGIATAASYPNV

Ki (Human cathepsin B) [µM] | Ki (Human cathepsin F) [µM] | Ki (Human cathepsin L) [µM] | Ki (Human cathepsin S) [µM] | Ki (CATV) [µM] | SMILES
> 1 | – | > 1 | < 1 | > 1 | N#CC1(NC(=O)[C@H](CC(F)(F)CC2CC2)NCC(F)(F)Oc2ccc(F)cc2)CC1 [L, (S)-N-(1-cyanocyclopropyl)-5-cyclopropyl-2-(2,2-difluoro-2-(4-fluorophenoxy)ethylamino)-4,4-difluoropentanamide]
< 0.1 | > 1 | > 1 | < 1 | > 1 | CC#C[C@H](N[C@@H](CSCC1CC1)C(=O)NC1(C#N)CC1)C(F)(F)Oc1ccc(SC)cc1 [Compound C, (R)-N-(1-cyanocyclopropyl)-3-(cyclopropylmethylthio)-2-((S)-1,1-difluoro-1-(4-(methylthio)phenoxy)pent-3-yn-2-ylamino)propanamide]
< 0.1 | < 1 | < 1 | < 0.1 | < 0.1 | CC[C@H](NC(=O)[C@H](CS(=O)(=O)CC1CC1)NCC(F)(F)Oc1ccc(F)cc1)C(=O)C(=O)NC1CC1 [J, (S)-N-cyclopropyl-3-((R)-3-(cyclopropylmethylsulfonyl)-2-(2,2-difluoro-2-(4-fluorophenoxy)ethylamino)propanamido)-2-oxopentanamide]
> 1 | > 1 | > 1 | < 0.1 | < 1 | CC#C[C@H](N[C@@H](CS(=O)(=O)CC1CC1)C(=O)NC1(C#N)CC1)C(F)(F)Oc1ccc(S(C)(=O)=O)cc1 [D, (R)-N-(1-cyanocyclopropyl)-3-(cyclopropylmethylsulfonyl)-2-((S)-1,1-difluoro-1-(4-(methylsulfonyl)phenoxy)pent-3-yn-2-ylamino)propanamide]
< 1 | – | < 0.1 | < 0.1 | < 0.1 | CC[C@H](NC(=O)[C@H](CC(F)(F)CC1CC1)NCC(F)(F)Oc1ccc(F)cc1)C(=O)C(=O)NC1CC1 [K, (S)-5-cyclopropyl-N-((S)-1-(cyclopropylamino)-1,2-dioxopentan-3-yl)-2-(2,2-difluoro-2-(4-fluorophenoxy)ethylamino)-4,4-difluoropentanamide]
> 1 | > 1 | > 1 | < 0.1 | < 1 | N#CC1(NC(=O)[C@H](CS(=O)(=O)Cc2cccnc2)NCC(F)(F)Oc2ccc(F)cc2)CC1 [A, (R)-N-(1-cyanocyclopropyl)-2-(2,2-difluoro-2-(4-fluorophenoxy)ethylamino)-3-(pyridin-3-ylmethylsulfonyl)propanamide]
> 1 | > 1 | > 1 | < 0.1 | < 0.1 | CC#C[C@H](N[C@@H](CS(=O)(=O)Cc1ccccn1)C(=O)NC1(C#N)CC1)C(F)(F)Oc1ccc(S(C)(=O)=O)cc1 [F, (R)-N-(1-cyanocyclopropyl)-2-((S)-1,1-difluoro-1-(4-(methylsulfonyl)phenoxy)pent-3-yn-2-ylamino)-3-(pyridin-2-ylmethylsulfonyl)propanamide]
> 1 | > 1 | > 1 | < 0.1 | < 1 | CC#C[C@H](N[C@@H](CSCc1ccccn1)C(=O)NC1(C#N)CC1)C(F)(F)Oc1ccc(SC)cc1 [E, (R)-N-(1-cyanocyclopropyl)-2-((S)-1,1-difluoro-1-(4-(methylthio)phenoxy)pent-3-yn-2-ylamino)-3-(pyridin-2-ylmethylthio)propanamide]
< 0.1 | < 1 | < 0.1 | < 0.1 | < 0.1 | CC[C@H](NC(=O)[C@H](CS(=O)(=O)Cc1cccnc1)NCC(F)(F)Oc1ccc(F)cc1)C(=O)C(=O)NC1CC1 [B, (S)-N-cyclopropyl-3-((R)-2-(2,2-difluoro-2-(4-fluorophenoxy)ethylamino)-3-(pyridin-3-ylmethylsulfonyl)propanamido)-2-oxopentanamide]

SMILES | Ki (Human cathepsin B) [µM] | Ki (Human cathepsin F) [µM] | Ki (Human cathepsin L) [µM] | Ki (Human cathepsin S) [µM] | Ki (CATV) [µM]
CC#C[C@H](N[C@@H](CSCc1cccnc1)C(=O)NC1(C#N)CC1)C(F)(F)Oc1ccc(SC)cc1 [G] | > 1 | > 1 | > 1 | < 0.1 | < 1
CC#C[C@H](N[C@@H](CS(=O)(=O)Cc1ccc[n+]([O-])c1)C(=O)NC1(C#N)CC1)C(F)(F)Oc1ccc(S(C)(=O)=O)cc1 [I] | > 1 | > 1 | > 1 | < 0.1 | < 0.1
CC#C[C@H](N[C@@H](CS(=O)(=O)Cc1cccnc1)C(=O)NC1(C#N)CC1)C(F)(F)Oc1ccc(S(C)(=O)=O)cc1 [H, (R)-N-(1-cyanocyclopropyl)-3-((S)-1,1 1-difluoro-1-(4-(methylsulfonyl)phenoxy)pent-3-yn-2-ylamino)-2-((pyridin-3-ylmethylsulfonyl)methyl)propanamide] | > 1 | > 1 | > 1 | < 0.1 | < 0.1
